Results from patent publication US7414042B2, “Method and composition for selectively inhibiting melanoma” (The Board of Trustees of The University of Illinois, priority 1995, dated 2008).
Converted amounts (≈) assume the structure as drawn.

Columns and labels:
[1] = tested on: BC-1 (breast); assay: Cytotoxicity against cultured human cancer cells (SRB); type: cell-based; settings: Homo sapiens, 72 h; three days incubation, SRB; read-out: ED50 BC-1
Experimental: (§1) The plates were incubated for three days. […] Dose response studies were performed to generate ED50 values.

[2] = tested on: COL-2 (colon); assay: as above; type: cell-based; settings: Homo sapiens, Col2, 72 h; three days incubation, SRB; read-out: ED50 COL-2
Experimental: as §1

[3] = tested on: HT-1080 (sarcoma); assay: as above; type: cell-based; settings: Homo sapiens, HT-1080, 72 h, three days incubation, read-out: ED50 HT-1080
Experimental: as §1

[4] = tested on: LNCaP (prostate); assay: as above; type: cell-based; settings: Homo sapiens, LNCaP, 72 h; three days incubation, SRB; read-out: ED50 LNCaP
Experimental: as §1

[5] = tested on: ZR-75-1 (breast); assay: as above; type: cell-based; settings: Homo sapiens, ZR-75-1, 72 h; three days incubation, SRB; read-out: ED50 ZR 75-1
Experimental: as §1

[6] = tested on: MEL-2 (melanoma); assay: Cytotoxicity against cultured human melanoma cells (SRB); type: cell-based; settings: for ED50 (Std. Dev.) MEL-2: derivatives, Tables 2-6
Experimental: as §1

[7] = tested on: human melanoma and nonmelanoma cancer cell lines; assay: Cytotoxicity profile across the panel of human cancer cell lines; settings: Table 1 panel
Experimental: (§2) In the following Table 1, the extracted betulinic acid and the other pure compounds were tested for cycotoxity against the following cultured human cell lines: A431 (squamous cells), BC-1 (breast), COL-2 (colon), HT-1080 (sarcoma), KB (human oral epidermoid carcinoma), LNCaP (prostate), LU-1 (lung), MEL-2 (melanoma), U373 (glioma) and ZR-75-1 (breast).
(§3) Cytotoxicity of the crude extracts and purified compounds was determined in a number of cultured human cancer cell lines. The cells were cultured in appropriate media and under standard conditions. To maintain logarithmic growth, the media were changed 24 hours prior to cytotoxic assays. On the day of the assay, the cells were harvested by trypsinization, counted, diluted in media, and added to 96-well plates containing test compounds dissolved in DMSO; the final DMSO concentration was 0.05%.
(§4) The plates were incubated for three days. Following the incubation period, the cells were fixed and stained with sulforhodamine B (SRB) dye. The bound dye was liberated with Tris base, and the OD515 was measured on an ELISA reader. The growth of the betulinic acid-treated cells was determined by the OD515 values, and the growth was compared to the OD515 values of DMSO-treated control cells. Dose response studies were performed to generate ED50 values.
(§5) The biological evaluation of the derivatives focused on the activity against human melanoma cell lines. In particular, the following betulinic acid derivatives were prepared and tested for cytotoxicity profile against human melanoma cell lines and against a number of selected nonmelanoma cell lines.

[8] = tested on: KB (human oral epidermoid carcinoma); assay: Cytotoxicity against cultured human cancer cells (SRB); type: cell-based; settings: derivatives, Tables 2-6
Experimental: as §1

[9] = tested on: LOX melanoma cell line; assay: Cytotoxicity of betulinic acid derivatives; type: cell-based, human; settings: Tables 2-6
Experimental: as §1

[10] = tested on: MALE-3M melanoma cell line; assay: Cytotoxicity of betulinic acid derivatives; type: cell-based, human; settings: Tables 2-6
Experimental: as §1

[11] = tested on: MEL-6 melanoma cell line; assay: Cytotoxicity of betulinic acid derivatives; type: cell-based, human; settings: Tables 2-6
Experimental: as §1

[12] = tested on: MEL-8 melanoma cell line; assay: Cytotoxicity of betulinic acid derivatives; type: cell-based, human; settings: Tables 2-6
Experimental: as §1

[13] = tested on: human melanoma and nonmelanoma cancer cell lines
Experimental: as §2, §3, §4, §5

SMILES	IC50 [1] [µg/mL]	IC50 [2] [µg/mL]	IC50 [3] [µg/mL]	IC50 [4] [µg/mL]	IC50 [5] [µg/mL]	IC50 ([6]; Homo sapiens, MEL2, 72 h, three days incubation, SRB, Table 1 and text, read-out: ED50 MEL-2) [µg/mL]	cytotoxic activity profile, cell-type selectivity [7]	ED50 (Std. Dev.) KB [8] [µg/mL]	ED50 (Std. Dev.) MEL-2 [6]	ED50 (Std. Dev.) LOX [9] [µg/mL]	ED50 (Std. Dev.) MALE-3M [10] [μg/mL]	ED50 (Std. Dev.) MEL-6 [11]	ED50 (Std. Dev.) MEL-8 [12]	cytotoxicity and selectivity compared with betulinic acid or the corresponding analog [13]
CC[C@@]1(O)C(=O)OCc2c1cc1n(c2=O)Cc2cc3ccccc3nc2-1 [Camptothecin]	0.07 (≈ 0.201 µM)	0.005 (≈ 0.0144 µM)	0.01 (≈ 0.0287 µM)	0.006 (≈ 0.0172 µM)	0.001 (≈ 0.00287 µM)	0.02 (≈ 0.0574 µM)	relatively intense, nonselective cytotoxic activity	–	–	–	–	–	–	–
C=C(C)C1CCC2(C=O)CCC3(C)C(CCC4C5(C)CCC(=O)C(C)(C)C5CCC43C)C12 (stereo not shown) [Compound 1]	–	–	–	–	–	–	–	12.9 (≈ 29.4 µM)	7.4 (2.4) μg/mL	18.5 (≈ 42.2 µM)	>20	>20 µg/mL	3.2 (1.2) μg/mL	–
C=C(C)C1CCC2(C=NOC)CCC3(C)C(CCC4C5(C)CCC(=NOC)C(C)(C)C5CCC43C)C12 (stereo not shown) [Compound 3]	–	–	–	–	–	–	–	20 (≈ 40.3 µM)	>20 µg/mL	>20	>20	>20 µg/mL	>20 µg/mL	–
C=C(C)C1CCC2(C=NO)CCC3(C)C(CCC4C5(C)CCC(=NO)C(C)(C)C5CCC43C)C12 (stereo not shown) [Compound 4]	–	–	–	–	–	–	–	3.3 (≈ 7.04 µM)	2.2 (0.7) μg/mL	4.1 (≈ 8.75 µM)	17.5	11.9 (2.7) μg/mL	1.4 (0.6) μg/mL	improved the cytotoxicity profile, although selectivity was lost
CON=C1CCC2(C)C(CCC3(C)C2CCC2C4C(C(C)C)CCC4(C(=O)O)CCC23C)C1(C)C (stereo not shown) [Compound 5]	–	–	–	–	–	–	–	–	>20 µg/mL	–	>20	>20 µg/mL	>20 µg/mL	less active
CC(C)[C@@H]1CC[C@]2(C(=O)O)CC[C@]3(C)[C@H](CC[C@@H]4[C@@]5(C)CCC(=O)C(C)(C)[C@@H]5CC[C@]43C)[C@@H]12 [Compound 6, Dihydrobetulonic acid]	–	–	–	–	–	–	–	–	0.7 (0.6) μg/mL	–	20	10.8 (2.6) μg/mL	0.9 (0.4) μg/mL	comparable biological activity
CC(C)C1CCC2(C(=O)O)CCC3(C)C(CCC4C5(C)CCC(=NO)C(C)(C)C5CCC43C)C12 (stereo not shown) [Compound 7]	–	–	–	–	–	–	–	–	2.2 (0.3) μg/mL	–	13.9	13.1 (1.1) μg/mL	1.6 (1.1) μg/mL	comparable biological activity
C=C(C)[C@@H]1CC[C@]2(C(=O)O)CC[C@]3(C)[C@H](CC[C@@H]4[C@@]5(C)CCC(=O)C(C)(C)[C@@H]5CC[C@]43C)[C@@H]12 [Compound 8, Betulonic acid]	–	–	–	–	–	–	–	2.5 (≈ 5.5 µM)	0.9 (0.8) μg/mL	6.9 (≈ 15.2 µM)	20	15.3 (3.4) μg/mL	0.4 (0.1) μg/mL	decrease in selective cytotoxicity
CC(C)[C@@H]1CC[C@]2(C(=O)O)CC[C@]3(C)C(CCC4[C@@]5(C)CC[C@H](O)C(C)(C)C5CC[C@]43C)C12 (stereo partly shown) [Compound 11, Dihydrobetulinic acid]	–	–	–	–	–	–	–	>20	5.8 µg/mL (≈ 12.6 µM)	>20	–	–	–	less active
